# Assay results from ChEMBL document CHEMBL5649169 (ChemMedChem, 2018).
# Tests used:
# [1] = molecular target: Protein phosphatase 1G (Homo sapiens) (UniProt O15355)
# [2] = organism: Homo sapiens
# [3] = molecular target: Serine/threonine-protein kinase 10 (Homo sapiens) (UniProt O94804)
# [4] = molecular target: Casein kinase I isoform gamma-1 (Homo sapiens) (UniProt Q9HCP0)
# [5] = molecular target: Endoplasmic reticulum aminopeptidase 1 (Homo sapiens) (UniProt Q9NZ08)
# [6] = molecular target: Phosphoprotein associated with glycosphingolipid-enriched microdomains 1 (Homo sapiens) (UniProt Q9NWQ8)
# [7] = molecular target: Midasin (Homo sapiens) (UniProt Q9NU22)
# [8] = molecular target: Protein arginine N-methyltransferase 5 (Homo sapiens) (UniProt O14744)
# [9] = molecular target: Mitogen-activated protein kinase 11 (Homo sapiens) (UniProt Q15759)
# [10] = molecular target: Puromycin-sensitive aminopeptidase (Homo sapiens) (UniProt P55786)
# [11] = organism: Homo sapiens; remark: listed apart in the source
# [12] = molecular target: Activated CDC42 kinase 1 (Homo sapiens) (UniProt Q07912)
# Chain of Activated CDC42 kinase 1 (Homo sapiens) (Q07912 whole entry, looked up): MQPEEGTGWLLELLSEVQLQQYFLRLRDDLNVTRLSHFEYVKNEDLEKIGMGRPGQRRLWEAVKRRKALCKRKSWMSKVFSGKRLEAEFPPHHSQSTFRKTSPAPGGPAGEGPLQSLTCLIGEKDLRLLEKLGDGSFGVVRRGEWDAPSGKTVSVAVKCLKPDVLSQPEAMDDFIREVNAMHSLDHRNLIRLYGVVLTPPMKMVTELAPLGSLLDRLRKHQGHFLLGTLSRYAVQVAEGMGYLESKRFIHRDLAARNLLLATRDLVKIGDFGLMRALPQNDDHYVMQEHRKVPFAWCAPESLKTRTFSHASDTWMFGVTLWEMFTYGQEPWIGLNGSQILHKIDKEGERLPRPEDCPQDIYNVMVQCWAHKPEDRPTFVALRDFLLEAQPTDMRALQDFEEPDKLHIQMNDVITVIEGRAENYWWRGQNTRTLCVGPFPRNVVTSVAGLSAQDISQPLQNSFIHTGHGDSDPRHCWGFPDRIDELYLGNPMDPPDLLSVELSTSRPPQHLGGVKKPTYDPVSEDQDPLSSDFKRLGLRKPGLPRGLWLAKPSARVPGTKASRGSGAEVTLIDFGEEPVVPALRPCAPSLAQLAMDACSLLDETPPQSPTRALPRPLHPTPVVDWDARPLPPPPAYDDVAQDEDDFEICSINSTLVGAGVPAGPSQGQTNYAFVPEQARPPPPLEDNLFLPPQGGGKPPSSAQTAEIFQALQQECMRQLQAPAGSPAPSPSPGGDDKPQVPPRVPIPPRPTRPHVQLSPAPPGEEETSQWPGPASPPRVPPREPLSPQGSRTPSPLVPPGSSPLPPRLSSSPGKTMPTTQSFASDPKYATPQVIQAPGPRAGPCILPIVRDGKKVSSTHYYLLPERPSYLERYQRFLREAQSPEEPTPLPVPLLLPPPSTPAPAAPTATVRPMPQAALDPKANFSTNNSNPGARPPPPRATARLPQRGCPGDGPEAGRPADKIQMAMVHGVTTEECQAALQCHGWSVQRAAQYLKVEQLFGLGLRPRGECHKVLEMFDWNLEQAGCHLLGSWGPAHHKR
# [13] = molecular target: Carboxymethylenebutenolidase homolog (Homo sapiens) (UniProt Q96DG6)
# [14] = molecular target: Histone H1.5 (Homo sapiens) (UniProt P16401)
# [15] = molecular target: Cyclin-dependent kinase 7 (Homo sapiens) (UniProt P50613)
# [16] = molecular target: Dual specificity mitogen-activated protein kinase kinase 6 (Homo sapiens) (UniProt P52564)
# Chain of Dual specificity mitogen-activated protein kinase kinase 6 (Homo sapiens) (P52564 whole entry): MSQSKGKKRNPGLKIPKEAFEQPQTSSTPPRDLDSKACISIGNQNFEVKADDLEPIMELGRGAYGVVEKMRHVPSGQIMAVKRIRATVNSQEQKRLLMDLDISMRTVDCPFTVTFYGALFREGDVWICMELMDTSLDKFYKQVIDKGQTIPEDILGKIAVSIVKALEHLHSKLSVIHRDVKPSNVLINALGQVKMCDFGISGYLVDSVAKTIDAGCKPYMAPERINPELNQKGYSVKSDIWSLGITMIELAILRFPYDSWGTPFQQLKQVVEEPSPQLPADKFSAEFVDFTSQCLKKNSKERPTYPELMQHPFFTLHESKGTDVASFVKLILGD
# [17] = molecular target: Heterogeneous nuclear ribonucleoprotein A/B (Homo sapiens) (UniProt Q99729)
# [18] = molecular target: Mammalian ependymin-related protein 1 (Homo sapiens) (UniProt Q9UM22)
# Chain of Mammalian ependymin-related protein 1 (Homo sapiens) (Q9UM22 whole entry): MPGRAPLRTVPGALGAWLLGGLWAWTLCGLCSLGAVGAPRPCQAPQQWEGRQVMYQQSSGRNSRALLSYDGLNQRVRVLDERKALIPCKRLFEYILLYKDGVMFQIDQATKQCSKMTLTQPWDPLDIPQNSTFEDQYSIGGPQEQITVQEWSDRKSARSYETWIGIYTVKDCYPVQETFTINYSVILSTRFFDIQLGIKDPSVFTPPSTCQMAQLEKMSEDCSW
# [19] = molecular target: T-complex protein 1 subunit theta (Homo sapiens) (UniProt P50990)
# Chain of T-complex protein 1 subunit theta (Homo sapiens) (P50990 whole entry, one chain of several): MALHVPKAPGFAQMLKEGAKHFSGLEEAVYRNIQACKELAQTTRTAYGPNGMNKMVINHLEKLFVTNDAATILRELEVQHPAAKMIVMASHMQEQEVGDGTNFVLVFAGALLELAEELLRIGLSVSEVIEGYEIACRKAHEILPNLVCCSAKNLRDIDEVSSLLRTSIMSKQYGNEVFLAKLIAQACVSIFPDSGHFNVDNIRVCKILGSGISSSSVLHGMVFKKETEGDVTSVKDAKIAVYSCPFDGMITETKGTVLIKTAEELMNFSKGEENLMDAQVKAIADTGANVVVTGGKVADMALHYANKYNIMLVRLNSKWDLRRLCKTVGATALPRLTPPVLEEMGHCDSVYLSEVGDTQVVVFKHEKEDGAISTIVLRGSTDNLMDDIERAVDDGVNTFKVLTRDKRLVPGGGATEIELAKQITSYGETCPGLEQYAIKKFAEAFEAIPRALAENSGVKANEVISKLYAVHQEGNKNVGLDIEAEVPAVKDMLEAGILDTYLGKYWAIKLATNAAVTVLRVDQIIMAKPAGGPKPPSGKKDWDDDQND
# [20] = molecular target: Transportin-1 (Homo sapiens) (UniProt Q92973)
# Chain of Transportin-1 (Homo sapiens) (Q92973 whole entry): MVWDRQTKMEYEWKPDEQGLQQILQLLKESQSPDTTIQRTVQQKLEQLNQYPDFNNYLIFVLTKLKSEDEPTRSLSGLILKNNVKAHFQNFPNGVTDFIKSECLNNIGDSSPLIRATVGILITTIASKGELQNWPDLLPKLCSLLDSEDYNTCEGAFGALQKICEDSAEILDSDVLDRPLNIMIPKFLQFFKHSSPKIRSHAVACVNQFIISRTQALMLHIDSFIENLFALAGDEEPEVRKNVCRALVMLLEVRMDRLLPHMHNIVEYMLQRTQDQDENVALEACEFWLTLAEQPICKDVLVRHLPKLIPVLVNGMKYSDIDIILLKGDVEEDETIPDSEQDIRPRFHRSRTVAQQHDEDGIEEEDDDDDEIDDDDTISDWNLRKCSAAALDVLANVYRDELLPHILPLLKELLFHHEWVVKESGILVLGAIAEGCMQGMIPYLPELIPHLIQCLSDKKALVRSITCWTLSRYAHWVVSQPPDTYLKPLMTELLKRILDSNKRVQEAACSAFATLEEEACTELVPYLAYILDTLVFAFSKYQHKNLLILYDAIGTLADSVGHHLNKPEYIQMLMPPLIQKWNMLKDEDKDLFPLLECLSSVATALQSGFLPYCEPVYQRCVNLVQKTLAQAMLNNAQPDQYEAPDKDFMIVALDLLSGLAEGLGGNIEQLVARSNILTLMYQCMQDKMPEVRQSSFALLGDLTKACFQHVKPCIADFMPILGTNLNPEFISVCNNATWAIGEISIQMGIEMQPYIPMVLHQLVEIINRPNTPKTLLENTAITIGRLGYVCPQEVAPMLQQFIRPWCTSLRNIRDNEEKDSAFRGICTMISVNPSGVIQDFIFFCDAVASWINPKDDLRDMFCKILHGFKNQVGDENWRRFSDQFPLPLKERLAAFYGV
# [21] = molecular target: Peptidyl-prolyl cis-trans isomerase H (Homo sapiens) (UniProt O43447)
# [22] = molecular target: Cathepsin B (Homo sapiens) (UniProt P07858)
# [23] = molecular target: Serine/arginine-rich splicing factor 7 (Homo sapiens) (UniProt Q16629)
# [24] = molecular target: Sideroflexin-1 (Homo sapiens) (UniProt Q9H9B4)
# [25] = molecular target: DnaJ homolog subfamily C member 10 (Homo sapiens) (UniProt Q8IXB1)
# [26] = molecular target: Serine/threonine-protein kinase MRCK alpha (Homo sapiens) (UniProt Q5VT25)
# [27] = molecular target: Serine/threonine-protein kinase D3 (Homo sapiens) (UniProt O94806)
# [28] = molecular target: Small ribosomal subunit protein uS19 (Homo sapiens) (UniProt P62841)
# [29] = molecular target: Glucose-6-phosphate isomerase (Homo sapiens) (UniProt P06744)
# [30] = molecular target: Serine/threonine-protein kinase MRCK beta (Homo sapiens) (UniProt Q9Y5S2)
# [31] = molecular target: AP2-associated protein kinase 1 (Homo sapiens) (UniProt Q2M2I8)
# [32] = molecular target: Heterogeneous nuclear ribonucleoprotein D0 (Homo sapiens) (UniProt Q14103)
# [33] = molecular target: Glycogen synthase kinase-3 beta (Homo sapiens) (UniProt P49841)
# [34] = molecular target: ATP-dependent RNA helicase DDX18 (Homo sapiens) (UniProt Q9NVP1)
# [35] = molecular target: Transgelin-2 (Homo sapiens) (UniProt P37802)
# Chain of Transgelin-2 (Homo sapiens) (P37802 whole entry): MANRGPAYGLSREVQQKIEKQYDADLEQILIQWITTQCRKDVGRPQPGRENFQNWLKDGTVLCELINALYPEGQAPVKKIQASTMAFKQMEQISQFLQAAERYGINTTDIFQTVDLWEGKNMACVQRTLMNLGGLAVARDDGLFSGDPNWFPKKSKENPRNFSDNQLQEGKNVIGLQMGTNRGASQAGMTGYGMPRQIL
# [36] = molecular target: Coatomer subunit delta (Homo sapiens) (UniProt P48444)
# [37] = molecular target: Serine/threonine-protein kinase ICK (Homo sapiens) (UniProt Q9UPZ9)
# [38] = molecular target: Large ribosomal subunit protein uL6 (Homo sapiens) (UniProt P32969)
# [39] = molecular target: N-alpha-acetyltransferase 15, NatA auxiliary subunit (Homo sapiens) (UniProt Q9BXJ9)
# [40] = molecular target: Small ribosomal subunit protein uS17m (Homo sapiens) (UniProt Q9Y2R5)
# [41] = molecular target: Prohibitin-2 (Homo sapiens) (UniProt Q99623)
# Chain of Prohibitin-2 (Homo sapiens) (Q99623 whole entry): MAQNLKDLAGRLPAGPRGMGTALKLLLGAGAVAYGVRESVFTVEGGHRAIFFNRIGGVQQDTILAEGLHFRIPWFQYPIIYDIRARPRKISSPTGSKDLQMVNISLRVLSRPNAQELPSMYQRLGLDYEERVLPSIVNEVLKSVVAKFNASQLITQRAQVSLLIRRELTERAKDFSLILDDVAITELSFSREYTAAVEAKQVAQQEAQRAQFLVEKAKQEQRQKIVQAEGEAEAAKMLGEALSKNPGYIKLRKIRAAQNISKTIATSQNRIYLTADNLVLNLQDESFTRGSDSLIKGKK
# [42] = molecular target: Putative RNA-binding protein Luc7-like 2 (Homo sapiens) (UniProt Q9Y383)
# [43] = molecular target: Mitogen-activated protein kinase 7 (Homo sapiens) (UniProt Q13164)
# [44] = molecular target: Large ribosomal subunit protein eL15 (Homo sapiens) (UniProt P61313)
# [45] = molecular target: Ras-related protein Rab-10 (Homo sapiens) (UniProt P61026)
# [46] = molecular target: Cyclin-H (Homo sapiens) (UniProt P51946)
# [47] = molecular target: 7-dehydrocholesterol reductase (Homo sapiens) (UniProt Q9UBM7)
# Chain of 7-dehydrocholesterol reductase (Homo sapiens) (Q9UBM7 whole entry): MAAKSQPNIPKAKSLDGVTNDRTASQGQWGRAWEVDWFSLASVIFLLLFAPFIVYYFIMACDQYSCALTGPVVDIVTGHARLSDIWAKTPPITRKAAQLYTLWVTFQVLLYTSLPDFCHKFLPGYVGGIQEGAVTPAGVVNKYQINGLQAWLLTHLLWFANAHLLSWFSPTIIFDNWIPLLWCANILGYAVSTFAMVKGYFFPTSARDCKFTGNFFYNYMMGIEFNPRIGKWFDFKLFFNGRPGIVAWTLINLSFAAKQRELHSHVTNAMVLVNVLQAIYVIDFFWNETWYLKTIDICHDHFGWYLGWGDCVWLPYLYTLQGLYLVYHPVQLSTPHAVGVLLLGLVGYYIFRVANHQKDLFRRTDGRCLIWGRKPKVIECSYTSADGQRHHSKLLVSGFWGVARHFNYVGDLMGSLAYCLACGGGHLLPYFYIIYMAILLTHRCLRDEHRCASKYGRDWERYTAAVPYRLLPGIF
# [48] = molecular target: Chitobiosyldiphosphodolichol beta-mannosyltransferase (Homo sapiens) (UniProt Q9BT22)
# Note: assay method not described here.
# Chain of Endoplasmic reticulum aminopeptidase 1 (Homo sapiens) (Q9NZ08 whole entry): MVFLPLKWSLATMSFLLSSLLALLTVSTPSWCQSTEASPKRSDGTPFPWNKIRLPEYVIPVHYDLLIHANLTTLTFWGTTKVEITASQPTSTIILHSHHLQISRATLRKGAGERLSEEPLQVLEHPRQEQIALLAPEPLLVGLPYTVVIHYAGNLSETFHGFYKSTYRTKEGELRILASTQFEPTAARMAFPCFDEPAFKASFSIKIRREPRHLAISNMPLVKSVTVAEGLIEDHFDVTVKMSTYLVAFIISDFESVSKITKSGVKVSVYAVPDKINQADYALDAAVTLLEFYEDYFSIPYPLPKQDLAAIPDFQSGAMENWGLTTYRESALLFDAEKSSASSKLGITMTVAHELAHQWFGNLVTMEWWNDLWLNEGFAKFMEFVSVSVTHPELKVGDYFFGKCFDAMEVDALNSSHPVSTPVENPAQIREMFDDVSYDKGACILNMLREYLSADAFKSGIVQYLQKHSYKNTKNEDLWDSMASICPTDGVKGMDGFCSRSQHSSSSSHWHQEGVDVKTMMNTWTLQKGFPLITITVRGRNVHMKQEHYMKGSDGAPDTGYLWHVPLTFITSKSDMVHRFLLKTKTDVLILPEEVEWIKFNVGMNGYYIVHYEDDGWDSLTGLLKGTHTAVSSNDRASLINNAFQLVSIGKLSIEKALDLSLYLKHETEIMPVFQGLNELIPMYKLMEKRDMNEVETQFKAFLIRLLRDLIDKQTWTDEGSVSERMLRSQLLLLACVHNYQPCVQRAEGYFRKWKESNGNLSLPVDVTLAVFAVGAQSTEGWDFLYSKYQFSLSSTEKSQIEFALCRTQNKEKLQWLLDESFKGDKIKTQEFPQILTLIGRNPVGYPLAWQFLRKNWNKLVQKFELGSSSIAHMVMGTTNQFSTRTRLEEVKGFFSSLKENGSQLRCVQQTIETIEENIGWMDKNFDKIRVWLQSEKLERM
compound,measurement,setting,value
Cc1ccc(C(=O)Nc2cccc(C(F)(F)F)c2)cc1Nc1nc(-c2cccnc2)nc2c1cnn2C,ED50,[1],0.442 µM
same,ED50,[2],70 µM
same,ED50,[3],2.82 µM
same,ED50,[4],0.27 µM
same,ED50,[5],6.22 µM
same,ED50,[6],16.8 µM
same,ED50,[7],55500 µM
same,ED50,[8],18.2 µM
same,ED50,[9],0.0255 µM
same,ED50,[10],0.0863 µM
same,ED50,[11],1.18 µM
same,ED50,[12],2.19 µM
same,ED50,[13],0.671 µM
same,ED50,[14],4 µM
same,ED50,[15],0.0338 µM
same,ED50,[16],0.0368 µM
same,ED50,[17],0.0215 µM
same,ED50,[18],0.362 µM
same,ED50,[19],0.0186 µM
same,ED50,[20],3.81 µM
same,ED50,[21],2.05 µM
same,ED50,[22],60.4 µM
same,ED50,[23],0.00758 µM
same,ED50,[24],3.47 µM
same,ED50,[25],4930 µM
same,ED50,[26],111 µM
same,ED50,[27],0.0978 µM
same,ED50,[28],4.04 µM
same,ED50,[29],4.55 µM
same,ED50,[30],0.641 µM
same,ED50,[31],6.19 µM
same,ED50,[32],1.15 µM
same,ED50,[33],4.03 µM
same,ED50,[34],0.0244 µM
same,ED50,[35],3.15 µM
same,ED50,[36],2.38 µM
same,ED50,[37],0.0433 µM
same,ED50,[38],1.27 µM
same,ED50,[39],11.7 µM
same,ED50,[40],0.421 µM
same,ED50,[41],7.38 µM
same,ED50,[42],1.77 µM
same,ED50,[43],4.09 µM
same,ED50,[44],0.425 µM
same,ED50,[45],0.846 µM
same,ED50,[46],0.0553 µM
same,ED50,[47],0.0142 µM
same,ED50,[48],1.14 µM
Cc1ccc(C(=O)Nc2cccc(C(F)(F)F)c2)cc1Nc1nc(-c2cccnc2)nc2nn(C)cc12,ED50,[1],35 µM
same,ED50,[2],17.7 µM
same,ED50,[3],0.0351 µM
same,ED50,[4],3.41 µM
same,ED50,[5],8.49 µM
same,ED50,[6],1.77 µM
same,ED50,[7],0.048 µM
same,ED50,[8],3 µM
same,ED50,[9],6.69 µM
same,ED50,[10],0.0907 µM
same,ED50,[11],0.131 µM
same,ED50,[12],10.3 µM
same,ED50,[13],0.0561 µM
same,ED50,[14],1000 µM
same,ED50,[15],0.0647 µM
same,ED50,[16],1.71 µM
same,ED50,[17],1.36 µM
same,ED50,[18],0.016 µM
same,ED50,[19],43.3 µM
same,ED50,[20],0.464 µM
same,ED50,[21],0.0325 µM
same,ED50,[22],18.1 µM
same,ED50,[23],0.258 µM
same,ED50,[24],0.012 µM
same,ED50,[25],3.27 µM
same,ED50,[26],0.0291 µM
same,ED50,[27],1.55 µM
same,ED50,[28],0.0149 µM
same,ED50,[29],36500 µM
same,ED50,[30],0.00892 µM
same,ED50,[31],1560 µM
same,ED50,[32],0.0267 µM
same,ED50,[33],0.0177 µM
same,ED50,[34],0.0164 µM
same,ED50,[35],0.102 µM
same,ED50,[36],8.38 µM
same,ED50,[37],0.0292 µM
same,ED50,[38],5.23 µM
same,ED50,[39],2.07 µM
same,ED50,[40],0.0305 µM
same,ED50,[41],0.0686 µM
same,ED50,[42],4.27 µM
same,ED50,[43],5.74 µM
same,ED50,[44],0.0592 µM
same,ED50,[45],7.34 µM
same,ED50,[46],13.2 µM
same,ED50,[47],0.0055 µM
same,ED50,[48],0.0163 µM
